In data set [1] the test system is Key Broadleaf Weed and Crop Species. Description: Post-Emergent Test II (Table 5). Type of data set: in vivo. Conditions: post-emergence, 336 h; for pest or weed control at 70 g/ha: application rate 70 (kg ai/ha; footnote: g ai/ha); for pest or weed control at 140 g/ha: application rate 140 (kg ai/ha; footnote: g ai/ha). In a few lines:
(§1)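 Post-emergence greenhouse spray, 1st-2nd true leaf stage; track sprayer, 187 L/ha; acetone/DMSO stock diluted in aqueous acetone/IPA/DMSO with Atplus 411F and Triton X-155; rates 1× to 1/16×; subirrigated; visual injury 0 (none) to 100% (complete kill) at 14 days.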

Data set [2] concerns Key Grass and Sedge Weeds as well as Grass Crops. The experiment in a line: Post-Emergent Test II (Table 6). Type of data set: in vivo. The conditions noted are these: for pest or weed control at 70 g/ha / pest or weed control at 140 g/ha: post-emergence, 336 h, 14 days after application; for Visual Growth Reduction (%) 14 Days After Application, CYPSS: CYPSS (CYPES: yellow nutsedge, Cyperus esculentus); for Visual Growth Reduction (%) 14 Days After Application, ECHSS: ECHSS (ECHCG: barnyardgrass, Echinochloa crus-galli); for Visual Growth Reduction (%) 14 Days After Application, ORYSS: ORYSS (ORYSA: rice, Oryza sativa); for Visual Growth Reduction (%) 14 Days After Application, ORYSS / Visual Growth Reduction (%) 14 Days After Application, TRZSS / Visual Growth Reduction (%) 14 Days After Application, ZEAMX: crop; for Visual Growth Reduction (%) 14 Days After Application, SORVU: SORVU: johnsongrass (Sorghum vulgare); for Visual Growth Reduction (%) 14 Days After Application, TRZSS: TRZSS (TRZAS: wheat, spring, Triticum aestivum). The method in brief: as §1

The mark [3] stands for this setting: Euphorbia heterophylla, EPHHL: wild poinsettia (Euphorbia heterophylla), read-out: Visual Growth Reduction (%) 14 Days After Application EPHHL.
Setting [4] is: Viola tricolor, VIOTR: wild pansy (Viola tricolor), read-out: Visual Growth Reduction (%) 14 Days After Application VIOTR.
Setting [5] is: Abutilon theophrasti, ABUTH: velvetleaf (Abutilon theophrasti), read-out: Visual Growth Reduction (%) 14 Days After Application ABUTH.
Setting [6] is: Amaranthus retroflexus, AMARE: redroot pigweed (Amaranthus retroflexus), read-out: Visual Growth Reduction (%) 14 Days After Application AMARE.
Where [7] appears, read: Brassica napus, BRSSS: oilseed rape, canola (Brassica napus), read-out: Visual Growth Reduction (%) 14 Days After Application BRSSS.
The mark [8] stands for this setting: Chenopodium album, CHEAL: lambsquarters (Chenopodium album), read-out: Visual Growth Reduction (%) 14 Days After Application CHEAL.
The mark [9] stands for this setting: Helianthus annuus, HELAN: sunflower (Helianthus annuus), read-out: Visual Growth Reduction (%) 14 Days After Application HELAN.

Structures are written as SMILES. Where two headings read alike, the source gives them in different places.

By melting point is commonly meant the temperature of the solid-liquid transition. `COC(=O)c1nc(-c2ccc(C(F)F)nc2)c(F)c(N)c1Cl` [Compound 34, methyl 4-amino-5-chloro-6′-(difluoromethyl)-3-fluoro-2,3′-bipyridine-6-carboxylate] displayed a melting point of 144 to 146 °C.
On the same count and under the same terms, for `CCc1c(-c2cc(N)c(Cl)c(C(=O)OC)n2)ccc(Cl)c1F` [Compound 21] the value was 140 to 143 °C.
`COC(=O)c1nc(-c2ccc(C(F)(F)F)nc2)nc(N)c1Cl` [Compound 82, methyl 6-amino-5-chloro-2-(6-(trifluoromethyl)pyridin-3-yl)pyrimidine-4-carboxylate] returned a melting point of 179 to 181 °C. Besides, in data set [1] (setting [3]), the pest or weed control at 70 g/ha lay in the range of 0 to 29% and the pest or weed control at 140 g/ha was 0 to 29%. Moreover, in data set [1] (setting [4]), the pest or weed control at 70 g/ha is 0 to 29% and the pest or weed control at 140 g/ha is 0 to 29%. The pest or weed control at 70 g/ha in data set [2] (CYPSS, 70 g ai/ha, read-out: Visual Growth Reduction (%) 14 Days After Application CYPSS) lay within 0 to 29%. In addition, the pest or weed control at 140 g/ha in data set [2] (CYPSS, 140 g ai/ha, read-out: Visual Growth Reduction (%) 14 Days After Application CYPSS) is 0 to 29%. Moreover, in data set [2] (DIGSA: crabgrass (Digitaria sanguinalis), 70 g ai/ha, read-out: Visual Growth Reduction (%) 14 Days After Application DIGSA), the pest or weed control at 70 g/ha is 0 to 29%. Also, the pest or weed control at 140 g/ha in data set [2] (DIGSA: crabgrass (Digitaria sanguinalis), 140 g ai/ha, read-out: Visual Growth Reduction (%) 14 Days After Application DIGSA) is 0 to 29%. In addition, the pest or weed control at 70 g/ha in data set [2] (ECHSS, 70 g ai/ha, read-out: Visual Growth Reduction (%) 14 Days After Application ECHSS) lay within 0 to 29%. Also, the pest or weed control at 140 g/ha in data set [2] (ECHSS, 140 g ai/ha, read-out: Visual Growth Reduction (%) 14 Days After Application ECHSS) lay within 0 to 29%. In data set [2] (ORYSS (crop), 70 g ai/ha, read-out: Visual Growth Reduction (%) 14 Days After Application ORYSS), the pest or weed control at 70 g/ha lay within 0 to 29%. Also, in data set [2] (ORYSS (crop), 140 g ai/ha, read-out: Visual Growth Reduction (%) 14 Days After Application ORYSS), the pest or weed control at 140 g/ha was 0 to 29%. Also, the pest or weed control at 70 g/ha in data set [2] (SETFA: giant foxtail (Setaria faberi), 70 g ai/ha, read-out: Visual Growth Reduction (%) 14 Days After Application SETFA) was 0 to 29%. Also, the pest or weed control at 140 g/ha in data set [2] (SETFA: giant foxtail (Setaria faberi), 140 g ai/ha, read-out: Visual Growth Reduction (%) 14 Days After Application SETFA) is 0 to 29%. The pest or weed control at 70 g/ha in data set [2] (SORVU: grain sorghum (Sorghum vulgare), 70 g ai/ha, read-out: Visual Growth Reduction (%) 14 Days After Application SORVU) was in the range of 0 to 29%. For the same molecule, the pest or weed control at 140 g/ha in data set [2] (SORVU: grain sorghum (Sorghum vulgare), 140 g ai/ha, read-out: Visual Growth Reduction (%) 14 Days After Application SORVU) lay within 0 to 29%. Besides, the pest or weed control at 70 g/ha in data set [2] (TRZSS (crop), 70 g ai/ha, read-out: Visual Growth Reduction (%) 14 Days After Application TRZSS) lay in the range of 0 to 29%. In data set [2] (TRZSS (crop), 140 g ai/ha, read-out: Visual Growth Reduction (%) 14 Days After Application TRZSS), the pest or weed control at 140 g/ha lay in the range of 0 to 29%. In data set [2] (ZEAMX: maize, corn (Zea mays), 70 g ai/ha, read-out: Visual Growth Reduction (%) 14 Days After Application ZEAMX), the pest or weed control at 70 g/ha was in the range of 0 to 29%. Besides, the pest or weed control at 140 g/ha in data set [2] (ZEAMX: maize, corn (Zea mays), 140 g ai/ha, read-out: Visual Growth Reduction (%) 14 Days After Application ZEAMX) lay in the range of 0 to 29%.
As to `COC(=O)c1nc(-c2ccc(Cl)c(F)c2Cl)nc(N)c1OC` [Compound 42, Methyl 6-amino-2-(2,4-dichloro-3-fluorophenyl)-5-methoxypyrimidine-4-carboxylate], the pest or weed control at 70 g/ha fell in the range of 95 to 100% in data set [1] (setting [5]); 95 to 100% in data set [1] (setting [6]); 95 to 100% in data set [1] (setting [7]); 95 to 100% in data set [1] (setting [8]); 30 to 44% in data set [1] (setting [3]); 85 to 94% in data set [1] (setting [9]). Also, in data set [1] (setting [4]), the pest or weed control at 70 g/ha lay in the range of 60 to 74%. Besides, the pest or weed control at 140 g/ha in data set [1] (setting [5]) fell in the range of 95 to 100%; in data set [1] (setting [6]) it was 95 to 100%; in data set [1] (setting [7]) it was 95 to 100%; in data set [1] (setting [8]), 95 to 100%; in data set [1] (setting [3]), 60 to 74%; in data set [1] (setting [9]) it was 85 to 94%. The pest or weed control at 140 g/ha in data set [1] (setting [4]) lay within 60 to 74%. In addition, the “Visual Growth Reduction (%) 14 Days After Application, CYPSS” value in data set [2] (70 g ai/ha) and in data set [2] (140 g ai/ha) was “A (95-100)” throughout. Further, the “Visual Growth Reduction (%) 14 Days After Application, DIGSA” value is recorded as “G (0-29)” in data set [2] (DIGSA: crabgrass (Digitaria sanguinalis), 70 g ai/ha) and “G (0-29)” in data set [2] (DIGSA: crabgrass (Digitaria sanguinalis), 140 g ai/ha). In addition, the “Visual Growth Reduction (%) 14 Days After Application, ECHSS” value in data set [2] (70 g ai/ha) and in data set [2] (140 g ai/ha) was “G (0-29)” in each case. Further, the “Visual Growth Reduction (%) 14 Days After Application, ORYSS” value in data set [2] (70 g ai/ha) and in data set [2] (140 g ai/ha) was “G (0-29)” in each case. Moreover, the “Visual Growth Reduction (%) 14 Days After Application, SETFA” value in data set [2] (SETFA: giant foxtail (Setaria faberi), 70 g ai/ha) is reported as “G (0-29)”; in data set [2] (SETFA: giant foxtail (Setaria faberi), 140 g ai/ha), “G (0-29)”. Besides, the “Visual Growth Reduction (%) 14 Days After Application, SORVU” value in data set [2] (70 g ai/ha) is reported as “G (0-29)”; in data set [2] (140 g ai/ha), “F (30-44)”. Besides, the figures for the “Visual Growth Reduction (%) 14 Days After Application, TRZSS” value in data set [2] (70 g ai/ha) and in data set [2] (140 g ai/ha) were “F (30-44)” and “E (45-59)”, respectively. The “Visual Growth Reduction (%) 14 Days After Application, ZEAMX” value in data set [2] (ZEAMX: maize, corn (Zea mays), 70 g ai/ha) was “G (0-29)”; in data set [2] (ZEAMX: maize, corn (Zea mays), 140 g ai/ha) it was “G (0-29)”.

For the origin of these results see US10765114B2, “4-amino-6-(pyridyl and 2-substitutedphenyl)-picolinates and 6-amino-2-(pyridyl and 2-substitutedphenyl)-pyrimidine-4-carboxylates and their use as herbicides” (Dow AgroSciences LLC, priority 2013, dated 2020).
